{"source": "PubChem BioAssay (NCI)", "test_in_all_cases": "NCI-60 cell line screen, 48 h", "key": {"[1]": {"system": "EKVX NSCLC"}, "[2]": {"system": "HCT-116 colon"}, "[3]": {"system": "MCF7 breast"}, "[4]": {"system": "MDA-N"}, "[5]": {"system": "OVCAR-5 ovarian"}, "[6]": {"system": "PC-3 prostate"}, "[7]": {"system": "SF-268 CNS"}, "[8]": {"system": "SK-OV-3 ovarian"}, "[9]": {"system": "SNB-75 CNS"}, "[10]": {"system": "T-47D breast"}}, "note": "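The compound was tested at five concentrations on cells cultured in 96-well plates, with a 48-hour exposure period. At the TGI there is no net growth.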", "data": [{"smiles": "O=C1OC(=O)c2cc(S(=O)(=O)c3ccc4c(c3)C(=O)OC4=O)ccc21", "values": [{"measurement": "TGI", "setting": "[1]", "result": "> 100", "unit": "µM"}, {"measurement": "TGI", "setting": "[2]", "result": "> 100", "unit": "µM"}, {"measurement": "TGI", "setting": "[3]", "result": "> 100", "unit": "µM"}, {"measurement": "TGI", "setting": "[4]", "result": "> 100", "unit": "µM"}, {"measurement": "TGI", "setting": "[5]", "result": "> 100", "unit": "µM"}, {"measurement": "TGI", "setting": "[6]", "result": "> 100", "unit": "µM"}, {"measurement": "TGI", "setting": "[7]", "result": "> 100", "unit": "µM"}, {"measurement": "TGI", "setting": "[8]", "result": "> 100", "unit": "µM"}, {"measurement": "TGI", "setting": "[9]", "result": "> 100", "unit": "µM"}, {"measurement": "TGI", "setting": "[10]", "result": "> 100", "unit": "µM"}]}, {"smiles": "O=[N+]([O-])c1ccc(C=NCC2CCCN3CCCCC23)cc1", "note": "(stereo not given)", "values": [{"measurement": "TGI", "setting": "[1]", "result": "> 100", "unit": "µM"}, {"measurement": "TGI", "setting": "[2]", "result": "> 100", "unit": "µM"}, {"measurement": "TGI", "setting": "[3]", "result": 66.6, "unit": "µM"}, {"measurement": "TGI", "setting": "[4]", "result": "> 100", "unit": "µM"}, {"measurement": "TGI", "setting": "[5]", "result": "> 100", "unit": "µM"}, {"measurement": "TGI", "setting": "[6]", "result": "> 100", "unit": "µM"}, {"measurement": "TGI", "setting": "[7]", "result": "> 100", "unit": "µM"}, {"measurement": "TGI", "setting": "[8]", "result": "> 100", "unit": "µM"}, {"measurement": "TGI", "setting": "[9]", "result": "> 100", "unit": "µM"}, {"measurement": "TGI", "setting": "[10]", "result": "> 100", "unit": "µM"}]}, {"smiles": "CC(=O)OCC1OC(Oc2cc(C)c(O)cc2C/C=C(\\C)CC/C=C(\\C)CC(=O)CC(C)C)C(O)C(OC(C)=O)C1OC(C)=O", "note": "(stereo not given)", "values": [{"measurement": "TGI", "setting": "[1]", "result": 16.3, "unit": "µM"}, {"measurement": "TGI", "setting": "[2]", "result": "> 50", "unit": "µM"}, {"measurement": "TGI", "setting": "[3]", "result": 43.8, "unit": "µM"}, {"measurement": "TGI", "setting": "[4]", "result": "> 50", "unit": "µM"}, {"measurement": "TGI", "setting": "[5]", "result": "> 50", "unit": "µM"}, {"measurement": "TGI", "setting": "[6]", "result": "> 50", "unit": "µM"}, {"measurement": "TGI", "setting": "[7]", "result": "> 50", "unit": "µM"}, {"measurement": "TGI", "setting": "[8]", "result": "> 50", "unit": "µM"}, {"measurement": "TGI", "setting": "[9]", "result": "> 50", "unit": "µM"}, {"measurement": "TGI", "setting": "[10]", "result": 27.3, "unit": "µM"}]}, {"smiles": "CCOC(=O)C(NC(=O)c1ccccc1)(N1CCOCC1)C(F)(F)F", "note": "(stereo not given)", "values": [{"measurement": "TGI", "setting": "[1]", "result": "> 100", "unit": "µM"}, {"measurement": "TGI", "setting": "[2]", "result": "> 100", "unit": "µM"}, {"measurement": "TGI", "setting": "[3]", "result": "> 100", "unit": "µM"}, {"measurement": "TGI", "setting": "[4]", "result": "> 100", "unit": "µM"}, {"measurement": "TGI", "setting": "[5]", "result": "> 100", "unit": "µM"}, {"measurement": "TGI", "setting": "[6]", "result": "> 100", "unit": "µM"}, {"measurement": "TGI", "setting": "[7]", "result": "> 100", "unit": "µM"}, {"measurement": "TGI", "setting": "[8]", "result": "> 100", "unit": "µM"}, {"measurement": "TGI", "setting": "[9]", "result": "> 100", "unit": "µM"}, {"measurement": "TGI", "setting": "[10]", "result": "> 100", "unit": "µM"}]}]}
